Data reported in patent publication US8586318B2, “Restricted access media and methods for making restricted access media” (Board of Regents of the University of Nebraska, priority 2008, dated 2013).

Columns and labels:
[1] = test system: anti-fluorescein antibodies; test: Static binding of fluorescein or fluorescein-BSA to anti-fluorescein RAM support; design: species or system mouse; settings: 100 Å silica
Experimental: The binding properties of the anti-fluorescein IA-RAM support were initially determined before and after digestion by reacting this support with a known excess of fluorescein (sodium salt, MW=376 Da) or fluorescein-BSA conjugate (average MW=69.5 kDa). Studies were performed using anti-fluorescein antibodies covalently linked to Nucleosil Si-100 using the hydrazide-activation method. A 2 mg portion of the desired anti-fluorescein support was incubated with shaking in 1 mL of a 0.040 μg/mL fluorescein solution or 1 mL of 20 μg/mL fluorescein-BSA solution in 0.1 M potassium phosphate buffer (pH 7.4) at 4° C. for 30 minutes. The mixtures were centrifuged and the supernatant was analyzed for fluorescein or fluorescein-BSA content based on the fluorescence of the solutions. Standard solutions that contained 0.002-2.0 μg/mL fluorescein or 1-30 μg/mL of the fluorescein-BSA conjugate in 0.10 M potassium phosphate buffer (pH 7.4) were also analyzed. The amount of fluorescein or fluorescein-BSA bound to the anti-fluorescein IA-RAM supports was determined by comparing the final and initial concentrations of fluorescein or fluorescein-BSA that remained in solution. […] The fluorescein or fluorescein-BSA that was bound by anti-fluorescein antibodies was determined by determining the amount of the analytes that remained in solution after the incubation step.

[2] = test system: anti-fluorescein antibodies; test: Ultrafast extraction on anti-fluorescein RAM column, flow-based; type: binding, mouse
Experimental: For chromatographic studies, 200 μL injections of samples containing 0.5 nM fluorescein or 3 nM of fluorescein-BSA were made at flow rates ranging from 0.1-1.0 mL/min. The injections were performed at room temperature using 0.067 M potassium phosphate buffer (pH 7.4) as the application buffer. Two or three replicate injections were made at each flow rate onto columns containing the anti-fluorescein IA-RAM support or the corresponding control support. […] The fraction of extracted fluorescein was calculated by comparing the areas of the non-retained peaks to those obtained using a control column. […] The retained species were eluted between studies by washing the column with a 0.067 M potassium phosphate buffer (pH 2.5) for 20 minutes. Elution was followed by a column regeneration step by applying 0.067 M phosphate application buffer (pH 7.4) for 10 minutes before each new sample injection. The RAM, specifically an IA-RAM made using anti-fluorescein antibody, was tested for use in a flow-based system for the selective, ultrafast extraction of fluorescein versus a fluorescein-BSA conjugate. This was accomplished by comparing the results obtained with a RAM column to results for a control column containing only diol silica.

fluorescein-BSA conjugate: fluorescein conjugate of bovine serum albumin, prepared using fluorescein isothiocyanate, 12 mol fluorescein/mol protein
original binding capacity of the covalently linked antibodies ([1]; before papain treatment, hydrazide method, 30 minutes incubation): 0.69 (±0.01) mg/g silica
decrease of binding capacity after treatment with papain ([1]; papain 90 minutes at 37° C., 1:100 (w/w)): 92%
retention on anti-fluorescein RAM column (in words) ([2]; injected at 0.1 mL/min): no significant degree of binding
extracted by anti-fluorescein RAM support ([2]; same conditions as used for fluorescein): less than 1%
